Experimental data published in patent US9919023B2, “Anti-androgen peptides and uses thereof in cancer therapy” (Cancer Research Technology Limited, priority 2007, dated 2018).
Peptide text beside a SMILES is read from it.

What was measured:
MCF-7 cells [1] = experiment: BrdU incorporation (DNA synthesis), estradiol-stimulated MCF-7 cells; assay type: cell-based, human; details: 24 hrs
Experimental: (§1) DNA synthesis is assayed in single cells by a 6 h pulse with 100 μM (final concentration) BrdU (Boeheringer). Cells on coverslips are fixed, and incubated with diluted (1:1 in PBS) fluorescein-conjugated mouse anti-BrdU mAbs (clone BMC9318 from Boheringer Mannheim Co., IN), then washed three times with PBS. […] All coverslips are washed three times in PBS, inverted and mounted in Moviol (Calbiochem, CA) on glass slides. Slides are analyzed using an Axiophot fluorescent microscope (Zeiss).

Cyclin D1 [2] = experiment: Estrogen-induced cyclin D1 expression, western blot in MCF-7 and LNCaP cells; assay type: cell-based, human
Experimental: Quiescent MCF-7 and LNCaP cells were left untreated or treated for 8 hrs with 10 nM 17β estradiol alone or in the presence of 5 μM PI3-Kinase inhibitor LY294,002 or 1 nM of the SH3 binder or the shuffled sequence of peptide SEQ.ID NO.1 (SEQ.ID NO.7). Protein from cell lysates were resolved on SDS-PAGE, then transferred to nitrocellulose filters. […] Lanes 1: unstimulated cells; lanes 2: estradiol treated cells; lanes 3: cells treated with estradiol in the presence of LY294,002 (LY); lane 4: cells treated with estradiol in the presence of SH3-binder peptide (SH3); lane 5: cells treated with estradiol in the presence of the shuffled sequence of peptide SEQ.ID NO.1 (Ss).
To test the effect of SH3 binder peptide (SEQ.ID NO.1) on estrogen stimulated Cyclin D1 expression, this peptide is added to LNCaP and MCF-7 cells stimulated with 10 nM 17β-estradiol (FIG. 3B). MCF-7 and LNCaP cells are routinely grown as reported above. Cells are then kept for at least 4 days in red phenol-free medium supplemented as described above and added with dextran-coated charcoal treated fetal calf serum to minimize steroid contamination.

LNCaP cells [3] = experiment: BrdU incorporation (DNA synthesis), EGF-stimulated LNCaP cells; assay type: cell-based, human; details: 24 hrs
Experimental: FIG. 1C. DNA synthesis inhibition of EGF-stimulated human prostate cancer cells by SH3 binder peptide modeled from AR (SEQ. ID NO.1). LNCaP cells were grown in phenol red-free medium added with charcoal-treated serum as previously described and treated for 24 hrs with 100 ng/ml EGF alone or in the presence of a 10 μM of the anti-estrogen ICI 182,780 or 1 nM of the AR-derived (SH3-binder) peptide (SEQ.ID NO.1) or the shuffled sequence of peptide SEQ.ID NO.1 (SEQ.ID NO.7). At the end of the growth factor treatment BrdU incorporation in the cells untreated (control) or treated with EGF alone (EGF) or in the presence of ICI 182,780 (ICI) or the SH3-binder (SH3) or the shuffled sequence of peptide SEQ.ID NO.1 (Ss) was assayed. Data are reported as percentage of cells incorporating BrdU.
(§2) The peptide SEQ.ID NO.1 is finally assayed for its ability to reduce or inhibit EGF induced DNA synthesis in human prostate cancer LNCaP (1C) and MCF-7 (1D) cells. The LNCaP and MCF-7 cells are cultured as described above, then seeded onto coverslips. Cells are then stimulated with 100 ng/ml of highly purified EGF (Boheringer, Calif.) in the absence or in presence of 1 nM peptide SEQ.ID NO.1.
as §1

Cyclin D1 [4] = experiment: Androgen-induced cyclin D1 expression, western blot in MCF-7 and LNCaP cells; assay type: cell-based, human
Experimental: Inhibition of androgen-induced cyclin D1 expression by AR-derived Src-SH3 binder peptide (SEQ.ID NO.1). Quiescent MCF-7 and LNCaP cells were left untreated or treated for 8 hrs with 10 nM R1881 alone or in the presence of 5 μM PI3-kinase inhibitor LY294,002 or 1 nM AR-derived SH3 binder or the shuffled sequence of peptide SEQ.ID NO.1 (SEQ.ID. NO.7). Protein from cell lysates were resolved on SDS-PAGE, then transferred to nitrocellulose filters. […] Lanes 1: unstimulated cells; lanes 2: R1881 treated cells; lanes 3: cells treated with R1881 in the presence of LY294,002 (LY); lanes 4: cells treated with R1881 in the presence of AR-derived (SH3-binder) peptide (SH3); lane 5: cells treated with R1881 in the presence of the shuffled sequence of peptide SEQ.ID NO.1 (Ss).
To verify this possibility, SH3 binder peptide (SEQ.ID NO.1) is added to MCF-7 and LNCaP cells stimulated with the androgen. MCF-7 and LNCaP cells are routinely grown as described above. Cells are then kept for at least 4 days in red phenol-free medium supplemented as described above and added with dextran-coated charcoal treated fetal calf serum to minimize steroid concentration.

LNCaP cells [5] = experiment: BrdU incorporation (DNA synthesis), R1881-stimulated LNCaP cells; assay type: cell-based, human; details: for residual BrdU incorporation: R1881 alone 54%, untreated 20%
MCF-7 cells [6] = experiment: BrdU incorporation (DNA synthesis), EGF-stimulated MCF-7 cells; assay type: cell-based, human; details: 24 hrs
Experimental: FIG. 1D. […] MCF-7 cells were grown in phenol red-free medium added with charcoal-treated serum as previously described and treated for 24 hrs with 100 ng/ml EGF alone or in the presence of a 10 μM of the anti-estrogen ICI 182,780 or 1 nM of the AR-derived (SH3-binder) peptide or the shuffled sequence of peptide SEQ ID NO.1 (SEQ.ID. NO.7). At the end of the growth factor treatment, BrdU incorporation in the cells untreated (control) or treated with EGF alone (EGF) or in the presence of ICI 182,780 (ICI) or SH3-binder (SH3) or shuffled sequence of peptide SEQ.ID NO.1 (Ss) was assayed. Data are reported as percentage of cells incorporating BrdU.
as §2, §1

androgen receptor = experiment: ARE luciferase reporter gene transcription in LNCaP cells; assay type: cell-based, human
Experimental: LNCaP cells were transfected with a reporter gene encoding the luciferase gene under the control of an androgen responsive element (ARE 3416) (Castoria et al., 2003). Six hrs after transfection, cells were kept for further 24 hrs in the absence or in presence of 10 nM R1881 alone or with a 1000 fold excess of Casodex or with 1 nM SH3 binder peptide (SEQ.ID NO.1) or 1 nM shuffled sequence of peptide SEQ.ID NO.1 (SEQ.ID. NO.7). Luciferase activity was then assayed in cell lysates. Bar1: unstimulated cells; Bar 2: R1881 treated cells; Bar 3: cells treated with R1881 in the presence of Casodex (Cdx); Bar 4: cells treated with R1881 in the presence of the SH3 binder peptide (SH3); Bar 5: cells treated with R1881 in the presence of the shuffled sequence of peptide SEQ.ID NO.1 (Ss).
LNCaP cells, kept in 5% CO2 in air in RPMI 1640 medium (GIBCO) supplemented with phenol-red, 2 mM L-glutamine (GIBCO), penicillin (100 U/ml), gentamicin (50 μl/ml), insulin and 10% fetal calf serum, are transfected with a reporter gene engineered in a pSG5 expression vector with the luciferase gene under the control of an androgen responsive element (ARE3416) (Verrijdt et al., 2000). […]

ER association with Src = target: T1, ER association with Src (Homo sapiens, UniProt P12931); experiment: Estrogen-stimulated ER/AR association with Src, anti-Src co-immunoprecipitation in MCF-7 cells; assay type: cell-based
T1 construct: Cell lysates are submitted to immunoprecipitation using mouse monoclonal anti-Src antibodies; endogenous in cells; host or cells: MCF-7
Experimental: Human breast cancer MCF-7 cells were left unstimulated or stimulated for 2 min with 10 nM 17β estradiol alone or in the presence of a 1000 fold excess of ICI 182,780 or 1 nM of the SH3 binder peptide or the shuffled sequence of peptide SEQ.ID NO.1 (SEQ.ID NO.7). Cell lysates were incubated with anti-Src antibodies, immunoprecipitated proteins were resolved on SDS-PAGE and transferred onto nitrocellulose filters. Filters were then blotted with either anti-Src or anti-human AR antibodies to detect AR associated with Src.
Cells are suspended in 1 ml of lysis buffer: 50 mM Tris-HCl, pH 7.40, containing 5 mM MgCl2, 150 mM NaCl, 0.5% Triton X-100 and left under gentle shaking for 2 min, at 4° C. Suspensions are then centrifuged at about 800 g for 30 min and supernatant collected and used for immunoprecipitation.
To address this point mammary cancer derived MCF-7 cells are grown in 5% CO2 in air in DMEM medium (GIBCO) supplemented with phenol-red, 2 mM L-glutamine (GIBCO), penicillin (100 U/ml), gentamicin (50 μl/ml), hydrocortisone (3.75 ng/ml) insulin (0.2 U.I./ml) and 5% fetal calf serum. The cells are then kept in DMEM without phenol red and supplemented with glutamine, penicillin, gentamicin and insulin as above and containing 5% charcoal-stripped fetal calf serum for additional 4 days. […]

AR association with Src = target: T2, AR association with Src (Homo sapiens, UniProt P12931); experiment: Androgen-stimulated AR association with Src, anti-Src co-immunoprecipitation in LNCaP cells; assay type: cell-based
T2 construct: Cell lysates are submitted to immuno-precipitation using mouse monoclonal anti-Src antibodies; endogenous in cells; host or cells: LNCaP
Experimental: Human prostate cancer LNCaP cells were left unstimulated or stimulated for 2 min with 10 nM R1881 alone or in the presence of 1000-fold excess of Casodex or 1 nM of the SH3-binder peptide or the shuffled sequence of peptide SEQ.ID NO.1 (SEQ.ID NO.7). Cell lysates were incubated with anti-Src antibodies, and the immunoprecipitated proteins resolved on SDS-PAGE and transferred onto nitrocellulose filters. Filters were then blotted with either anti-Src or anti-human AR antibodies to detect AR associated with Src. […] Lane 1: unstimulated cells; lane 2: R1881 treated cells; lane 3: cells treated with R1881 in the presence of Casodex (Cdx); lane 4: cells treated with R1881 in the presence of the SH3 binder peptide (SH3, SEQ.ID NO.1); lane 5: cells treated with R1881 in the presence of the shuffled sequence of peptide SEQ.ID NO.1 (Ss, SEQ.ID NO.7).
Cells are then stimulated with 10 nM R1881 alone or in the presence of a 1000-fold excess of the anti-androgen Casodex or 1 nM of the SEQ.ID NO.1 peptide or 1 nM of the shuffled sequence of peptide SEQ.ID NO.1 (SEQ.ID NO.7) for 2 min, and lysed. Cell lysates are submitted to immuno-precipitation using mouse monoclonal anti-Src antibodies (Clone 327, Oncogene Science, Manhasset, N.Y.). The immuno-precipitated proteins are resolved on a 12% SDS-polyacrylammide gel and thereafter transferred onto nitrocellulose filters. […]

LNCaP cell xenografts = LNCaP cell xenografts in nude male mice; details: peptide intraperitoneally on alternate days, LNCaP xenograft mice; data not shown
MCF-7 cell xenografts = MCF-7 cell xenografts in nude male mice; details: peptide intraperitoneally on alternate days, MCF-7 xenograft mice; data not shown
[7] = 1 nM peptide with 10 nM R1881, 24 hrs
[8] = 1 nM peptide with 10 nM 17β estradiol

C[C@]12CC[C@@H]3c4ccc(O)cc4CC[C@H]3[C@@H]1CC[C@@H]2O [17β estradiol]
BrdU incorporation rate (MCF-7 cells [1]; 10 nM 17β estradiol alone, untreated cells 8%, averaged from six assays): 61%

Ac-His-Pro-Lys-Pro-Ala-Arg-Ile-Pro-His-Pro-NH2 (Ac-HPKPARIPHP-NH2) [SEQ.ID NO.7]
Cyclin D induction by estrogen (Cyclin D1 [2]; 1 nM peptide with 10 nM 17β estradiol, 6 hrs): a little effect
BrdU incorporation (residual) (LNCaP cells [3]; 1 nM peptide with 100 ng/ml EGF, EGF alone 21%, untreated 8%): 15%
Cyclin D induction by R1881 (Cyclin D1 [4]; 1 nM peptide with 10 nM R1881, 6 hrs, MCF-7 and LNCaP): only partially reduces
residual BrdU incorporation (LNCaP cells [5]; [7]): 48%
effect on estrogen-induced DNA synthesis (MCF-7 cells [1]; [8]): not significant effect
BrdU incorporation (residual) (MCF-7 cells [6]; 1 nM peptide with 100 ng/ml EGF, EGF alone 36%, untreated 6%): 48%
transcriptional activity of AR (luciferase reporter) (androgen receptor; [7]): neither the SH3 peptide nor the shuffled sequence of peptide SEQ. ID NO.1 affect
hormone stimulated receptor-Src association (co-immunoprecipitation by anti-Src antibodies) (ER association with Src; [8]): only slightly affected
hormone stimulated Src-AR association (AR co-immunoprecipitated by anti-Src antibodies) (AR association with Src; 1 nM peptide with 10 nM R1881, 2 min): only slightly affected

C[C@]1(O)CC[C@H]2[C@@H]3CCC4=CC(=O)CCC4=C3C=C[C@@]21C [R1881]
BrdU incorporation rate (LNCaP cells [5]; 10 nM R1881 alone, 24 hrs, untreated cells 20%, averaged from six assays): 54%

C[C@]12CC[C@@H]3c4ccc(O)cc4C[C@@H](CCCCCCCCC[S+]([O-])CCCC(F)(F)C(F)(F)F)[C@H]3[C@@H]1CC[C@@H]2O (stereo partly shown) [ICI 182,780]
residual BrdU incorporation (LNCaP cells [3]; 10 μM with 100 ng/ml EGF, EGF alone 21%, untreated 8%): 7%
residual BrdU incorporation (MCF-7 cells [1]; 1000-fold excess with 10 nM 17β estradiol, E2 alone 61%, untreated 8%): 7%
residual BrdU incorporation (MCF-7 cells [6]; 10 μM with 100 ng/ml EGF, EGF alone 36%, untreated 6%): 9%
association between ER and Src (co-immunoprecipitation by anti-Src antibodies) (ER association with Src; 1000-fold excess with 10 nM 17β estradiol): abolished

CC(O)(CS(=O)(=O)c1ccc(F)cc1)C(=O)Nc1ccc(C#N)c(C(F)(F)F)c1 (stereo not shown) [Casodex, biclutamide]
residual BrdU incorporation (LNCaP cells [5]; 1000-fold excess with 10 nM R1881, 24 hrs): 21%
androgen induced transcription of reporter gene (androgen receptor; 1000 fold excess with 10 nM R1881, 24 hrs): completely inhibits
hormone stimulated Src-AR association (AR co-immunoprecipitated by anti-Src antibodies) (AR association with Src; 1000-fold excess with 10 nM R1881, 2 min): abolished

CC(C)(C)n1nc(-c2ccc(Cl)cc2)c2c(N)ncnc21 [PP2]
hormone stimulated cyclin expression (Cyclin D1 [4]; with 10 nM R1881, concentration not given, data not shown): abolishes

O=c1cc(N2CCOCC2)oc2c(-c3ccccc3)cccc12 [LY 294,002]
hormone stimulated cyclin expression (Cyclin D1 [2]; 5 μM with 10 nM 17β estradiol): abolishes
hormone stimulated cyclin expression (Cyclin D1 [4]; 5 μM with 10 nM R1881, MCF-7 and LNCaP): abolishes

CC[C@H](C)[C@H](NC(=O)[C@H](CCCNC(=N)N)NC(=O)[C@H](C)NC(=O)[C@H](Cc1c[nH]cn1)NC(=O)[C@@H]1CCCN1C(=O)[C@H](Cc1c[nH]cn1)NC(=O)[C@@H]1CCCN1C(=O)[C@@H]1CCCN1C(=O)[C@@H]1CCCN1C(C)=O)C(=O)N[C@@H](CCCCN)C(N)=O [SEQ.ID NO.1, Ac-Pro-Pro-Pro-His-Pro-His-Ala-Arg-Ile-Lys-NH2] (Ac-PPPHPHARIK-NH2)
weight of mice vs vehicle (LNCaP cell xenografts): No difference
weight of mice vs vehicle (MCF-7 cell xenografts): No difference

EGF: highly purified EGF, growth factor used as stimulus
BrdU incorporation (LNCaP cells [3]; 100 ng/ml EGF alone, untreated cells 8%): 21%
BrdU incorporation (MCF-7 cells [6]; 100 ng/ml EGF alone, untreated cells 6%): 36%
